Counter-ions that a name gives are not always drawn.
Assays:
[1] = tested on: Mouse colon cancer, Colon 26; assay: Antitumor activity, subcutaneously transplanted Colon 26 in mice; type: in vivo, female CDF1 mice; conditions: dose 15 mg/kg, once into tail vein
Text: Mouse colon cancer, Colon 26, maintained by serial subcutaneous subculture in mice, was minced into about 2-mm cubic fragments, and the fragments were subcutaneously transplanted on the dorsal part of female CDF1 mice with a trocar. Eight days after the tumor transplantation, the high-molecular weight conjugate according to the present invention (Compound 2 and Compound 4) or a control drug (Comparative Compound 1 and doxorubicin hydrochloride) was each administered once into the mouse tail vein in a way such that each mouse received the same dose per body weight in terms of doxorubicin. Each compound was dissolved in a 5% liquid glucose for injection and used. After the administration, the major axis (L mm) and the minor axis (W mm) of the tumor were measured using a caliper, and the tumor volume was calculated by the formula (L×W^2)/2.

[2] = Lethal dose of the control drug; type: in vivo; conditions: control drug of the antitumor test
Protocol: The lethal dose of doxorubicin used as the control drug was 30 mg/kg, and therefore doxorubicin was administered at a dose of 15 mg/kg to perform the antitumor test.

With COc1cccc2c1C(=O)c1c(O)c3c(c(O)c1C2=O)C[C@@](O)(C(=O)CO)C[C@@H]3O[C@H]1C[C@H](N)[C@H](O)[C@H](C)O1 [Doxorubicin, doxorubicin hydrochloride] the “relative tumor volume based on the tumor volume on the day of administration” value (shortened to “relative tumor volume based”) ([1]; day 0 after administration) was 1.00, the “relative tumor volume based” value ([1]; day 3 after administration) was 1.79 and the “relative tumor volume based” value ([1]; day 7 after administration) was 3.89. For the same molecule, the “relative tumor volume based” value ([1]; day 10 after administration) was 5.27, the “relative tumor volume based” value ([1]; day 14 after administration) was 12.17 and the lethal dose [2] was 30 mg/kg.

From patent US8920788B2, “High-molecular weight conjugate of physiologically active substances” (priority 2008, dated 2014)
